Laboratory results as given in patent US10562898B2, “Substituted benzenesulfonamides as inhibitors of alpha-4 beta-7 integrin activity” (EA PHARMA CO., LTD., priority 2016, dated 2020).

biological target: T1, T cell α4β7 integrin (Homo sapiens, UniProt P13612+P26010); experiment: Human MAdCAM-1/α4β7 integrin binding inhibitory activity evaluation test in whole human blood; assay type: cell-based; details: recombinant human MAdCAM-1/Fc, CD4 positive cells, flow cytometry
T1 construct: Blood samples were obtained from healthy volunteers' blood donation; endogenous in cells; host or cells: CD4-positive T cells in whole blood of healthy human volunteers
T1 sequence (P13612 34-1032): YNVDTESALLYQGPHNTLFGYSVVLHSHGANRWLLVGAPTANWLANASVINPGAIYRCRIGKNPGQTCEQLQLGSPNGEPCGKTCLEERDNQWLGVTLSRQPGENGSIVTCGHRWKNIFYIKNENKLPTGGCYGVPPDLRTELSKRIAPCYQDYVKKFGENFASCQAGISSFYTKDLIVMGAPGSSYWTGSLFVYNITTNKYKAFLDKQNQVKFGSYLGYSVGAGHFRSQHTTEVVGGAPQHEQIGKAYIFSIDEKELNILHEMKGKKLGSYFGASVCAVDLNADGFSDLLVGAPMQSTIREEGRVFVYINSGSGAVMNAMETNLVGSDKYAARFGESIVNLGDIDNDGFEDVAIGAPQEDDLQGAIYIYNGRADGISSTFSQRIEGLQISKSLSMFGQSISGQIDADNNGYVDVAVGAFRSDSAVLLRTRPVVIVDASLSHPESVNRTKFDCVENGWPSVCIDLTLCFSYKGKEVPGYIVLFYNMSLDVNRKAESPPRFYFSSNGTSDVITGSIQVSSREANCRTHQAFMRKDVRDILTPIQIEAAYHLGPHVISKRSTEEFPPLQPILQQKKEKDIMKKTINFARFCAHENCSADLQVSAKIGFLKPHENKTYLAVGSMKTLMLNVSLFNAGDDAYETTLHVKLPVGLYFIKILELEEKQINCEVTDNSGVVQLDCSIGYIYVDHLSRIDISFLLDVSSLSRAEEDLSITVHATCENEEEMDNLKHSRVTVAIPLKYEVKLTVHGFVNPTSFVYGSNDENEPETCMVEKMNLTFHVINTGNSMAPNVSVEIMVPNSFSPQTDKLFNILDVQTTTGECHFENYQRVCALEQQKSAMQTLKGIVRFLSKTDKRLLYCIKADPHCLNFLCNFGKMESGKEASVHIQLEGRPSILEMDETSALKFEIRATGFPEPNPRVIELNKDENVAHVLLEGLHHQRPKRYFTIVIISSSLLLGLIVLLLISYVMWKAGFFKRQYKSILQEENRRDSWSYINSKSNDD
T1 sequence (P26010 20-798): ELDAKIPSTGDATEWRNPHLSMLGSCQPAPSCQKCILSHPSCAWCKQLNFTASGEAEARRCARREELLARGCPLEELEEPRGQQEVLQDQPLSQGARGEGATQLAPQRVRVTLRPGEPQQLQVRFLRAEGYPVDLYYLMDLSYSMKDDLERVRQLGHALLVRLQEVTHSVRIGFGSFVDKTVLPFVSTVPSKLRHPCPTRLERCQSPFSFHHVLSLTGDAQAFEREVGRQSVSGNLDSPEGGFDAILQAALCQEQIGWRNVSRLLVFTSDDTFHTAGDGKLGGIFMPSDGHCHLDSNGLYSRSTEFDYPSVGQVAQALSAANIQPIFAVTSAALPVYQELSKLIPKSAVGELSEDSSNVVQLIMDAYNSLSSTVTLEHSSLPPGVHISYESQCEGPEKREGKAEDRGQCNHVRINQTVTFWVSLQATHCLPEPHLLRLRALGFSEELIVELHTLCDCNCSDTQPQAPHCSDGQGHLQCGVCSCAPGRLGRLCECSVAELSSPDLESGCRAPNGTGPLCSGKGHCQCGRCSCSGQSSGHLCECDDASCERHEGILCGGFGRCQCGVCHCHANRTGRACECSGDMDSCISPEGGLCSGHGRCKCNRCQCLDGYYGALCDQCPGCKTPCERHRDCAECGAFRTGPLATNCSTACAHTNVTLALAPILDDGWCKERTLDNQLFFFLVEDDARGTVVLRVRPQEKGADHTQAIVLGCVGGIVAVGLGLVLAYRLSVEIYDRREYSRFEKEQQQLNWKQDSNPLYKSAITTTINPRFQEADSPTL
Description: Human MAdCAM-1/α4β7 Integrin Binding Inhibitory Activity Evaluation Test in Whole Human Blood
Each test substance was measured in terms of the inhibitory activity of binding of T cell α4β7 integrin and MAdCAM-1 in human whole blood. Blood samples were obtained from healthy volunteers' blood donation.
A 4 mM MnCl2 solution and each of dilutions of various test substances were added to human whole blood, followed by incubation for 10 minutes. Recombinant human MAdCAM-1/Fc (R&D Systems) at 10 μg/mL was added, and each test sample taken in a total amount of 50 μL was incubated for 30 minutes. Then, 950 μL of Lyse/Fix (BD Biosciences) was added to allow hemolysis and fixation to proceed at 37° C. for 10 minutes. After centrifugation for 5 minutes, the supernatant was removed and 600 μL of a RPMI-1640 medium supplemented with 10% inactivated fetal bovine serum (hereinafter referred to as the medium) was added, followed by centrifugation for 5 minutes, removal of the supernatant, and then washing. The test sample was washed again with the medium, and then 2.5 μg/mL Mouse Anti-MAdCAM-1 antibody (Invitrogen) was added, followed by incubation for 30 minutes or more. After the test sample was washed with the medium, 3.4 μg/mL Goat Anti-Mouse IgG H&L, FITC (Abcam) was added, followed by incubation for 30 minutes or more. After the test sample was washed with the medium, 0.15 μg/mL PE Rat Anti-Mouse CD4 (BD Pharmigen) was added, followed by incubation for 30 minutes or more. After the test sample was washed with the medium, a ratio of MAdCAM-1 positive cells to CD4 positive cells was measured by using flow cytometry.
From independent test results using different blood samples of two to three persons, a MAdCAM-1 binding inhibiting rate of each test substance at each of various concentrations was obtained under the setting in which, among wells containing no test substances, a well containing no ligand was scored at 100% inhibition and a well containing ligand was scored at 0% inhibition, and then a concentration IC50 which brought about 50% binding inhibition was calculated.

| Structure (SMILES) | IC50 [nM] |
| --- | --- |
| Cc1cc(=O)n(-c2ccc(C[C@H](NC(=O)c3cc(F)c(NS(=O)(=O)c4ccc(NC(=O)C(C)(C)C)cc4)cc3F)C(=O)O)cn2)c(=O)n1C [Compound A45] | 1.5 |
| Cn1ccc(=O)n(-c2ccc(C[C@H](NC(=O)c3cc(F)c(NS(=O)(=O)c4ccc(NC(=O)C(C)(C)C)cc4)cc3F)C(=O)O)cn2)c1=O [Compound A53] | 2.9 |
| Cc1cn(C)c(=O)n(-c2ccc(C[C@H](NC(=O)c3cc(F)c(NS(=O)(=O)c4ccc(NC(=O)C5(C(F)(F)F)CC5)cc4)cc3F)C(=O)O)cn2)c1=O [Compound A56] | 5.4 |
| CN1CCC(=O)N(c2ccc(C[C@H](NC(=O)c3cc(F)c(NS(=O)(=O)c4ccc(NC(=O)C(C)(C)C)cc4)cc3F)C(=O)O)cn2)C1=O [Compound A75, (2S)-2-[2,5-difluoro-4-[(4-pivalamidophenyl)sulfonamide]benzamido]-3-[6-(3-methyl-2,6-dioxotetrahydropyrimidin-1(2H)-yl)pyridin-3-yl]propanoic acid] | 5.6 |

Now from value to molecule:

| IC50 [nM] | Structure (SMILES) |
| --- | --- |
| 2 | Cc1cn(C)c(=O)n(-c2ccc(C[C@H](NC(=O)c3cc(F)c(NS(=O)(=O)c4ccc(NC(=O)C(C)(C)C)cc4)cc3F)C(=O)O)cn2)c1=O [Compound A54] |
| 5.1 | Cc1cn(C)c(=O)n(-c2ccc(C[C@H](NC(=O)c3cc(F)c(NS(=O)(=O)c4ccc(NC(=O)C(C)(C)C(F)(F)F)cc4)cc3F)C(=O)O)cn2)c1=O [Compound A58] |
| 4.8 | Cc1cn(C)c(=O)n(-c2ccc(C[C@H](NC(=O)c3cc(F)c(NS(=O)(=O)c4ccc(NC(=O)C(C)(C)CO)cc4)cc3F)C(=O)O)cn2)c1=O [Compound A63] |
| 5.7 | Cn1cc(C(F)(F)F)c(=O)n(-c2ccc(C[C@H](NC(=O)c3cc(F)c(NS(=O)(=O)c4ccc(NC(=O)C(C)(C)C)cc4)cc3F)C(=O)O)cn2)c1=O [Compound A67] |
